Patent US8101766B2, “Crystalline form of a biphenyl compound” (Theravance, Inc., priority 2004, dated 2012)

Tests used:
[1] = Dynamic moisture sorption (DMS) assessment; type: physicochemical; conditions: for deliquescence: exposed to atmospheric moisture / DMS
Description: Dynamic Moisture Sorption Assessment
A dynamic moisture sorption (DMS) assessment (also known as a moisture sorption-desorption profile) was performed for a hand ground sample of a crystalline 1,2-ethanedisulfonic acid salt of biphenyl-2-ylcarbamic acid 1-[2-(2-chloro-4-{[(R)-2-hydroxy-2-(8-hydroxy-2-oxo-1,2-dihydroquinolin-5-yl)ethylamino]methyl}-5-methoxyphenylcarbamoyl)ethyl]piperidin-4-yl ester of Preparation 18 using a VTI atmospheric microbalance, SGA-100 system (VTI Corp., Hialeah, Fla. 33016). A sample size of approximately 10 mg was used and the humidity was set at the ambient value at the start of the analysis. A typical DMS analysis consisted of three scans: ambient to 2% relative humidity (RH), 2% RH to 90% RH, 90% RH to 5% RH at a scan rate of 5% RH/step. The mass was measured every two minutes and the RH was changed to the next value (+/−5% RH) when the mass of the sample was stable to within 0.01% for 5 consecutive points.

[2] = Thermal analysis (DSC and TGA); type: physicochemical; conditions: DSC traces, samples of Example 6 and Example 2
Description: Differential scanning calorimetry (DSC) was performed using a TA Instruments Model Q-10 module with a Thermal Analyst controller. Data were collected and analyzed using TA Instruments Thermal Solutions software. A sample of about 1 mg was accurately weighed into an aluminum pan with lid. The sample was evaluated using a linear heating ramp of 5° C./min from ambient temperature to approximately 300° C. The DSC cell was purged with dry nitrogen during use. A representative DSC trace for a sample of a crystalline 1,2-ethanedisulfonic acid salt of biphenyl-2-ylcarbamic acid 1-[2-(2-chloro-4-{[(R)-2-hydroxy-2-(8-hydroxy-2-oxo-1,2-dihydroquinolin-5-yl)ethylamino]methyl}-5-methoxyphenylcarbamoyl)ethyl]piperidin-4-yl ester of Example 6 is shown in FIG. 1 and a representative DSC trace for a sample of Example 2 is shown in FIG. 2.
Thermogravimetric analysis (TGA) was performed using a TA Instruments Model Q-50 module equipped with high resolution capability. Data were collected and analyzed using TA Instruments Thermal Solutions software. A sample weighing about 10 mg was placed onto a platinum pan and scanned with a high resolution-heating rate from ambient temperature to 300° C. The balance and furnace chambers were purged with nitrogen flows during use. […]

In the case of “Biphenyl-2-ylcarbamic Acid 1-[2-(2-Chloro-4-{[(R)-2-hydroxy-2-(8-hydroxy-2-oxo-1,2-dihydroquinolin-5-yl)ethylamino]methyl}-5-methoxyphenylcarbamoyl)-ethyl]piperidin-4-yl Ester 1,2-Ethanedisulfonic Acid Salt”, the sorption/desorption profile ([1]; DMS) is reported as “reversible”, the hygroscopicity ([1]; DMS trace, scans 2% RH to 90% RH, hand ground sample of Preparation 18) is reported as under 9% and the deliquescence [1] is reported as “not deliquescent”. The deliquescence ([1]; listed as crystalline 1,2-ethanedisulfonic acid salts of the compound of formula I) was “not to be deliquescent”, the weight gain ([1]; humidity range of 40% RH to 75% RH) was “less than 2.5%” and the “thermal stability: temperature below which no thermal decomposition” value [2] was at least 200 °C.
